Consider 1 molecule from US11708357B2, “Crystal form of pyrrolidinyl urea derivative and application thereof” (ZHANGZHOU PIEN TZE HUANG PHARMACEUTICAL CO., LTD., priority 2020, dated 2023).

Assay type in all cases: in vitro ADME
Data set [1] in a line: Plasma protein binding rate (PPB) test, human plasma. To be noted: 2 μM, dialysis 37° C. 4 hours. On the procedure: (§1) The protein binding rates of the test compound in the plasma of humans and SD rats were determined.
(§2) 796 μL of blank plasma from humans and SD rats (plasma purchased from BioreclamationIVT) were taken, 4 μL of working solution of the test compound (400 μM) or warfarin working solution (400 μM) was added and the final concentration of the test compound or warfarin was 2 μM. The sample was mixed thoroughly. […] All samples were analyzed by LC/MS/MS after protein precipitation, and the plasma protein unbound rate, binding rate and recovery rate was calculated according to the following formula: % unbound rate=100*free compound concentration at the membrane buffer side/total compound concentration at the membrane plasma side, % protein binding rate=100−% unbound rate, % recovery rate=100*(free compound concentration at the membrane buffer side+total compound concentration at the membrane plasma side)/total compound concentration before dialysis.

For another data set, the target named is T1, CYP3A4 (Homo sapiens, UniProt P08684).
T1 construct: from tissue; host or cells: human liver microsomes
T1 sequence (P08684 whole entry): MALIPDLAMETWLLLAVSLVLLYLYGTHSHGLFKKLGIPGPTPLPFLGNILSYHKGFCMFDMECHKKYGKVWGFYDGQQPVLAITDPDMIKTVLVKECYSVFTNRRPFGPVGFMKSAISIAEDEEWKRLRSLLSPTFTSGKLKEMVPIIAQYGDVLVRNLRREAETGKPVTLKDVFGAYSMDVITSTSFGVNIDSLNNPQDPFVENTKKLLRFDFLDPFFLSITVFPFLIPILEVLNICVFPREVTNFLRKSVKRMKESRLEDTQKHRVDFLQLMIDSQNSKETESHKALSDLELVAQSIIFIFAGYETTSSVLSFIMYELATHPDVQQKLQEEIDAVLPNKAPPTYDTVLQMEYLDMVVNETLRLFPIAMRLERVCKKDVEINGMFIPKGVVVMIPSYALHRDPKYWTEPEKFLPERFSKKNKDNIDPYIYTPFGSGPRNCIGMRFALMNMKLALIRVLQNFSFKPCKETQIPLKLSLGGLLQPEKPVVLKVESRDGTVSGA
Briefly: Cytochrome P450 isozyme inhibitory activity test, CYP3A4. To be noted: liver microsomes; human liver microsome. On the procedure: The inhibitory activities of the test compound on different subtypes of human cytochrome P450 isozymes were determined. The test compound, standard inhibitor (100× final concentration), and a mixed substrate working solution were prepared; the microsome frozen in −80° C. refrigerator was thawed. […]
On the technique in general: Liver microsomes are a subcellular fraction often used to study metabolism.

Data set [2] in a line: Plasma protein binding rate (PPB) test, SD rat plasma. Particulars: 2 μM, dialysis 37° C. 4 hours. The protocol: as §1, §2
A short description of data set [3]: Metabolic stability in rat liver microsomes. To be noted: pH 7.4, 0.5 mg protein/mL, read-out: Intrinsic clearance rate of liver microsomes, Rat. On the procedure: The metabolic stability of the test compound in human and rat liver microsomes was tested.
Test compound (10 mM), Testosterone (reference compound, 10 mM), Diclofenac (reference compound, 10 mM) and Propafenone (reference compound, 10 mM).
1. 100 mM potassium phosphate buffer (pH 7.4).
1. Intermediate solution: 45 μL of DMSO (with 450 μL of 1:1 methanol/water) was used to dilute 5 μL of the sample for test compound or reference compound.
2. Working solution: 450 μL of 100 mM potassium phosphate buffer was used to dilute the intermediate solution.
10 μL of the working solution of the test compound or reference compound was added to all plates (T0, T5, T10, T20, T30, T60, and NCF60).
680 μL of liver microsome solution was added to each well of 96-well plates, then 80 μL was added to each well of the plates, and the plates were placed at 37° C. for pre-incubation for approximately 10 minutes.
10 μL of 100 mM potassium phosphate buffer was added to each well of the NCF60 plate.
After the pre-incubation, 90 μL NADPH regeneration system working solution was added to each well of the 96-well plates, and then 10 μL was added to each well of the plates to initiate the reaction.
Incubation for an appropriate time (such as 5, 10, 20, 30, and 60 minutes). […]
The half-life T1/2 and the intrinsic clearance rate by liver microsome Clint(mic) were calculated by the following formulas: Ct=Cij·e^−k^s^·i • when […]

The IC50 is the midpoint of a concentration-inhibition curve.

Regarding `COCCN1C[C@@H](n2ccc(F)c2)[C@H](NC(=O)Nc2c(C)c(-c3cnc(C4(F)COC4)nc3)nn2-c2ccccc2)C1` [Compound of formula (I)], the “Plasma protein unbound rate, Human plasma” value in data set [1] stood at 13.2%. Further, the IC50 at 10 min at CYP3A4 is greater than 50 µM. The “Plasma protein unbound rate, SD rat plasma” value in data set [2] turned out to be 7.1%. Further, the CLint scaled in data set [3] was determined as 24.9 mL/min/kg.
